Test results from patent US9717243B2, “Piperidinecarboxylic acid derivatives as fungicides” (priority 2013, dated 2017).
Where two headings read alike, the source gives them in different places.

Columns and labels:
[1] = test system: Plasmopara viticola; assay: Plasmopara test (grapevines)/preventive; details: preventive, evaluated 6 days after inoculation, 0% = untreated control, 100% = no disease
Experimental: Plasmopara Test (Grapevines)/Preventive • Solvent: 24.5 parts by weight of acetone • 24.5 parts by weight of dimethylacetamide • Emulsifier: 1 part by weight of alkylaryl polyglycol ether
After the spray coating has dried on, the plants are inoculated with an aqueous spore suspension of Plasmopara viticola and then remain for 1 day in an incubation cabinet at approximately 20° C. and a relative atmospheric humidity of 100%. The plant is subsequently placed for 4 days in a greenhouse at approximately 21° C. and a relative atmospheric humidity of approximately 90%. The plants are then misted and placed for 1 day in an incubation cabinet.
The test is evaluated 6 days after the inoculation.

[2] = LogP by HPLC on reversed phase columns (EEC directive 79/831 Annex V.A8); type: physicochemical; details: for chromatographic logP: read-out: Log P[a]
Experimental: Calibration was done with straight-chain alkan2-ones (with 3 to 16 carbon atoms) with known LogP values (measurement of LogP values using retention times with linear interpolation between successive alkanones). Lambda-max-values were determined using UV-spectra from 200 nm to 400 nm and the peak values of the chromatographic signals.

[3] = test system: Phytophthora infestans; type: in vivo; details: 100 ppm of active ingredient; preventive, tomatoes; evaluated 3 days after inoculation; 0% = untreated control, 100% = no disease
[4] = Table 1, compounds of formula (I), LC-UV, acidic range, 0.1% formic acid in water and acetonitrile as eluent

## COC(=O)C1(c2nc(C3=NOC(c4ccccc4OS(C)(=O)=O)C3)cs2)CCN(C(=O)Nc2cc(C(F)F)ccc2C(F)F)CC1 (centres unmarked) [Example I-9]
[1]; 100 ppm of active ingredient
  Efficacy %: 100%
[2]
  Log P[a]: 3.42
[3]
  Efficacy %: 91%

## COC(=O)C1(c2nc(C3=NOC(c4ccccc4OS(C)(=O)=O)C3)cs2)CCN(C(=O)Cn2nc(C(F)F)cc2C(F)F)CC1 (centres unmarked) [Example I-7, methyl 1-{[3,5-bis(difluoromethyl)-1H-pyrazol-1-yl]acetyl}-4-[4-(5-{2-[(methylsulfonyl)oxy]phenyl}-4,5-dihydro-1,2-oxazol-3-yl)-1,3-thiazol-2-yl]piperidine-4-carboxylate]
[1]; 100 ppm of active ingredient
  Efficacy %: 100%
[2]; [4]
  chromatographic logP: 3.27
[3]
  Efficacy %: 95%

## COC(=O)C1(c2nc(C3=NOC(c4c(Cl)cccc4OS(C)(=O)=O)C3)cs2)CCN(C(=O)Nc2cc(C(F)F)nn2C)CC1 (centres unmarked) [Example I-12, methyl 4-[4-(5-{2-chloro-6-[(methylsulfonyl)oxy]phenyl}-4,5-dihydro-1,2-oxazol-3-yl)-1,3-thiazol-2-yl]-1-{[3-(difluoromethyl)-1-methyl-1H-pyrazol-5-yl]carbamoyl}piperidine-4-carboxylate]
[2]; [4]
  chromatographic logP: 2.84

## CCOC(=O)C1(c2nc(C3=NOC(c4ccccc4-c4ccccc4)C3)cs2)CCN(C(=O)Cn2nc(C(F)F)cc2C(F)F)CC1 (centres unmarked) [Example I-23]
[2]; [4]
  Log P[a]: 4.64

## COC(=O)C1(c2nc(C3=NOC(c4c(Cl)cccc4OS(C)(=O)=O)C3)cs2)CCN(C(=O)Cn2nc(C(F)F)cc2C(F)F)CC1 (centres unmarked) [Example I-6]
[2]; [4]
  Log P[a]: 3.44

## CCOC(=O)C1(c2nc(C3=NOC(c4c(Cl)cccc4OS(C)(=O)=O)C3)cs2)CCN(C(=O)Cn2nc(C(F)F)cc2C(F)F)CC1 (centres unmarked) [Example I-22]
[2]
  Log P[a]: 3.71

## COC(=O)C1(C#N)CCN(C(=O)Nc2cn(C)nc2C(F)F)CC1 [IV-34]
[2]
  Log P[a]: 1.40

## C#CCOc1ccc(F)c(F)c1C1CC(c2csc(C3(C(=O)OC)CCN(C(=O)Nc4cn(C)nc4C(F)F)CC3)n2)=NO1 (centres unmarked) [Example I-21]
[2]
  Log P[a]: 2.88

## O=C(Cn1nc(C(F)F)cc1C(F)F)N1CCC(C(=O)OC2CCOC2)(c2nc(C3=NOC(c4ccccc4-c4ccccc4)C3)cs2)CC1 (centres unmarked) [Example I-54]
[2]; [4]
  Log P[a]: 4.31

## C#CCOc1ccccc1C1CC(c2csc(C3(C(=O)OC)CCN(C(=O)Nc4cc(C(F)(F)F)nn4C)CC3)n2)=NO1 (centres unmarked) [Example I-80]
[2]
  Log P[a]: 3.35

## C#CCOc1ccccc1C1CC(c2csc(C3(C(=O)OC)CCN(C(=O)Cn4nc(C(F)(F)F)cc4C)CC3)n2)=NO1 (centres unmarked) [Example I-72]
[2]
  Log P[a]: 3.71

## COC(=O)C1(C(N)=S)CCN(C(=O)Cn2nc(C(F)F)cc2C(F)F)CC1 [II-11, methyl 1-{[3,5-bis(difluoromethyl)-1H-pyrazol-1-yl]acetyl}-4-carbamothioylpiperidine-4-carboxylate]
[2]; Table 4, compounds of formula (II), LC-UV, acidic range, 0.1% formic acid in water and acetonitrile as eluent
  chromatographic logP: 1.98

## C#CCOc1ccccc1C1CC(c2csc(C3(C(=O)OCC)CCN(C(=O)Cn4nc(C(F)F)cc4C(F)F)CC3)n2)=NO1 (centres unmarked) [Example I-27]
[2]
  Log P[a]: 3.87

## C=CCOC(=O)C1(C(N)=S)CCN(C(=O)Cn2nc(C(F)F)cc2C(F)F)CC1 [II-3]
[2]
  Log P[a]: 2.42

## CC(C)(C)OC(=O)C1(C#N)CCN(C(=O)Cc2ccc(Cl)cc2)CC1 [IV-24]
[2]
  Log P[a]: 3.37

## C#CCOc1ccc(F)c(F)c1C1CC(c2csc(C3(C(=O)OCC=C)CCN(C(=O)Cn4nc(C(F)F)cc4C(F)F)CC3)n2)=NO1 (centres unmarked) [Example I-46]
[2]
  Log P[a]: 3.94

## COCCOC(=O)C1(C(N)=S)CCN(C(=O)Cn2nc(C(F)F)cc2C(F)F)CC1 [II-18]
[2]
  Log P[a]: 2.10

## C#CCOC(=O)C1(C#N)CCN(C(=O)Cn2nc(C(F)F)cc2C(F)F)CC1 [IV-4]
[2]
  Log P[a]: 2.52

## COC(=O)C1(c2nc(C3=NOC(c4c(Cl)cccc4OS(C)(=O)=O)C3)cs2)CCN(C(=O)Nc2cn(C(F)F)nc2C)CC1 (centres unmarked) [Example I-13]
[2]
  Log P[a]: 2.86

## COCCOC(=O)C1(c2nc(C3=NOC(c4c(Cl)cccc4OS(C)(=O)=O)C3)cs2)CCN(C(=O)Cn2nc(C(F)F)cc2C(F)F)CC1 (centres unmarked) [Example I-77]
[2]
  Log P[a]: 3.48

## COC(=O)C1(c2nc(C3=NOC(c4c(F)cccc4F)C3)cs2)CCN(C(=O)Cn2nc(C(F)(F)F)cc2C)CC1 (centres unmarked) [Example I-69]
[2]
  Log P[a]: 3.55

## COC(=O)C1(c2nc(C3=NOC(c4ccccc4OS(C)(=O)=O)C3)cs2)CCN(C(=O)Nc2cc(C)ccc2C)CC1 (centres unmarked) [Example I-11]
[1]; 100 ppm of active ingredient
  Efficacy %: 100%
[2]
  Log P[a]: 3.29
[3]
  Efficacy %: 100%

## COC(=O)C1(c2nc(C3=NOC(c4ccccc4OS(C)(=O)=O)C3)cs2)CCN(C(=O)Nc2cn(C(F)F)nc2C)CC1 (centres unmarked) [Example I-10]
[1]; 100 ppm of active ingredient
  Efficacy %: 96%
[2]
  Log P[a]: 2.64
[3]
  Efficacy %: 94%

## COC(=O)C1(C(N)=S)CCN(C(=O)Nc2cn(C)nc2C(F)F)CC1 [II-16]
[2]
  Log P[a]: 1.22

## C#CCOc1ccccc1C1CC(c2csc(C3(C(=O)OCCSC)CCN(C(=O)Cn4nc(C(F)F)cc4C(F)F)CC3)n2)=NO1 (centres unmarked) [Example I-51]
[2]
  Log P[a]: 4.01

## CSCCOC(=O)C1(c2nc(C3=NOC(c4c(Cl)cccc4OS(C)(=O)=O)C3)cs2)CCN(C(=O)Cn2nc(C(F)F)cc2C(F)F)CC1 (centres unmarked) [Example I-47]
[2]
  Log P[a]: 3.85

## COC(=O)C1(c2nc(C3=NOC(c4ccccc4)C3)cs2)CCN(C(=O)Cn2nc(C(F)F)cc2C(F)F)CC1 (centres unmarked) [Example I-5]
[2]
  Log P[a]: 3.48

## COC(=O)C1(c2nc(C3=NOC(c4c(Cl)cccc4OS(C)(=O)=O)C3)cs2)CCN(C(=O)Cn2nc(C)cc2C(F)F)CC1 (centres unmarked) [Example I-74]
[2]
  Log P[a]: 3.15

## CC(C)OC(=O)C1(c2nc(C3=NOC(c4c(F)cccc4F)C3)cs2)CCN(C(=O)Cn2nc(C(F)F)cc2C(F)F)CC1 (centres unmarked) [Example I-31]
[2]
  Log P[a]: 3.99

## CC(C)=CCNC(=O)C1(C#N)CCN(C(=O)Nc2ccccc2)CC1 [IV-42]
[2]
  Log P[a]: 2.26

## COC(=O)C1(c2nc(C3=NOC(c4ccccc4OS(C)(=O)=O)C3)cs2)CCN(C(=O)Cn2nc(C(F)(F)F)cc2C)CC1 (centres unmarked) [Example I-71]
[2]
  Log P[a]: 3.33

## C#CCOC(=O)C1(c2nc(C3=NOC(c4c(Cl)cccc4OS(C)(=O)=O)C3)cs2)CCN(C(=O)Cn2nc(C(F)F)cc2C(F)F)CC1 (centres unmarked) [Example I-78]
[2]
  Log P[a]: 3.58

## COC(=O)C1(c2nc(C3=NOC(c4ccccc4-c4ccccc4)C3)cs2)CCN(C(=O)Cn2nc(C(F)F)cc2C(F)F)CC1 (centres unmarked) [Example I-2]
[2]; [4]
  Log P[a]: 4.36

## C#CCOc1ccccc1C1CC(c2csc(C3(C(=O)OC4CCOC4)CCN(C(=O)Cn4nc(C(F)F)cc4C(F)F)CC3)n2)=NO1 (centres unmarked) [Example I-58]
[2]
  Log P[a]: 3.55

## C#CCOc1ccccc1C1CC(c2csc(C3(C(=O)OC)CCN(C(=O)Nc4cn(C)nc4C(F)F)CC3)n2)=NO1 (centres unmarked) [Example I-20]
[2]
  Log P[a]: 2.88

## C#CCOc1ccc(F)c(F)c1C1CC(c2csc(C3(C(=O)OC)CCN(C(=O)Cn4nc(C(F)F)cc4C)CC3)n2)=NO1 (centres unmarked) [Example I-66]
[1]; 1 ppm of active ingredient
  Efficacy %: 76%
[2]
  Log P[a]: 3.33

## NC(=S)C1(C(=O)OC2CCOC2)CCN(C(=O)Cn2nc(C(F)F)cc2C(F)F)CC1 (centres unmarked) [II-1]
[2]
  Log P[a]: 2.02

## COC(=O)C1(C(N)=S)CCN(C(=O)Cn2nc(C(F)(F)F)cc2C)CC1 [II-6]
[2]
  Log P[a]: 2.08

## COC(=O)C1(c2nc(C3=NOC(c4ccccc4OS(C)(=O)=O)C3)cs2)CCN(C(=O)Nc2cn(C)nc2C(F)F)CC1 (centres unmarked) [Example I-19]
[2]
  Log P[a]: 2.53

## C=CCOC(=O)C1(c2nc(C3=NOC(c4c(F)cccc4F)C3)cs2)CCN(C(=O)Cn2nc(C(F)F)cc2C(F)F)CC1 (centres unmarked) [Example I-43]
[2]
  Log P[a]: 3.83

## CCOC(=O)C1(c2nc(C3=NOC(c4ccccc4OS(C)(=O)=O)C3)cs2)CCN(C(=O)Cn2nc(C(F)F)cc2C(F)F)CC1 (centres unmarked) [Example I-26]
[2]
  Log P[a]: 3.51

## C#CCOc1ccc(F)c(F)c1C1CC(c2csc(C3(C(=O)OC(C)C)CCN(C(=O)Cn4nc(C(F)F)cc4C(F)F)CC3)n2)=NO1 (centres unmarked) [Example I-34]
[2]
  Log P[a]: 4.09

## C#CCOc1ccc(F)c(F)c1C1CC(c2csc(C3(C(=O)OC)CCN(C(=O)Cn4nc(C(F)F)cc4C(F)F)CC3)n2)=NO1 (centres unmarked) [Example I-3]
[1]; 1 ppm of active ingredient
  Efficacy %: 93%
[2]
  Log P[a]: 3.61

## COC(=O)C1(C#N)CCN(C(=O)CCl)CC1 [VI-1, methyl 1-(chloroacetyl)-4-cyanopiperidine-4-carboxylate]
[2]; Table 3, compounds of formula (VI), LC-UV, acidic range, 0.1% formic acid in water and acetonitrile as eluent
  chromatographic logP: 1.27

## N#CC1(C(=O)O)CCN(C(=O)Nc2ccc(Cl)c(C(F)(F)F)c2)CC1 [IV-30]
[2]
  Log P[a]: 2.42

## COC(=O)C1(c2nc(C3=NOC(c4c(Cl)cccc4OS(C)(=O)=O)C3)cs2)CCN(C(=O)Cn2nc(C(F)F)cc2C)CC1 (centres unmarked) [Example I-60]
[2]
  Log P[a]: 3.19
